Laboratory results as given in PMC3479139, “Diverse Small Molecule Inhibitors of Human Apurinic/Apyrimidinic Endonuclease APE1 Identified from a Screen of a Large Public Collection” (PLoS ONE, 2012).

Key:
[1] = biological target: T1, APE1 (Homo sapiens, UniProt P27695); assay: Fluorescence polarization (FP) displacement assay of APE1 binding to AP-DNA probe; settings: read-out: FP IC50;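 further: TAMRA 5′-labeled duplex DNA with THF abasic site (5 nM) and APE1 (20 nM), Mg2+-free buffer, 15 min at room temperature, inhibition seen as lowered polarization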
T1 construct: made in house
T1 sequence (P27695 whole entry): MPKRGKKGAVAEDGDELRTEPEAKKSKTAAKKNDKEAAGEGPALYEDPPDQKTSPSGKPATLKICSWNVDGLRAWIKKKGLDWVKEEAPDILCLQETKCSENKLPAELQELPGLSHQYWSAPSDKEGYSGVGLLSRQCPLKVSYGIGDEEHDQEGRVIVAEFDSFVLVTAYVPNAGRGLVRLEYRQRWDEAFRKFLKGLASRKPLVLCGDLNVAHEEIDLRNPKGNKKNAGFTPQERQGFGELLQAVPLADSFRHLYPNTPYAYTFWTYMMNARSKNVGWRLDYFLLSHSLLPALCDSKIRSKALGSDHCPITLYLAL

[2] = biological target: T1, APE1; assay: Fluorogenic kinetic qHTS APE1 incision assay (primary screen and retest of cherrypicked samples); type: biochemical;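 further: purified APE1 cleaving a fluorophore/dark-quencher labelled 17-mer duplex DNA bearing a tetrahydrofuran AP site, fluorescence rise followed kinetically over the first 2 min, inhibition normalized to controls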
[3] = biological target: T1, APE1; assay: Gel-based radiotracer (32P) APE1 incision assay; type: biochemical; design: concentration or dose not given beside the values; settings: percent incision shown; entries 1-112;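 further: APE1 incision reactions ran 5 min at 37 °C, with cleaved product and intact substrate resolved electrophoretically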
[4] = biological target: T2, E. coli Endo IV (Escherichia coli, UniProt P0A6C1); assay: E. coli Endo IV profiling counterscreen; type: biochemical; settings: read-out: EndoIV IC50;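 further: selectivity counterscreen of candidate APE1 inhibitors against the bacterial endonuclease Endo IV, run in the same assay format as the primary APE1 high-throughput screen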
T2 construct: made in house
Text: (§1) In order to screen out nonselective compounds, such as non-specific DNA binders and inhibitors of related enzymes, we used a miniaturized ThO DNA displacement assay and a counterscreen against the bacterial endonuclease E. coli Endo IV, respectively, following the previously published protocols [21].
To probe the selectivity of the candidate APE1 inhibitors, we tested them against E. coli EndoIV [36], employing the same assay as used in the HTS.

[5] = biological target: double-stranded 17-mer DNA fragment; assay: ThO (Thiazole Orange) DNA displacement assay; type: binding; settings: read-out: ThO-DNA binding IC50;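 further: miniaturized displacement of the intercalating dye from unlabeled duplex DNA, used to flag nonspecific DNA binders, chiefly intercalators, groove binders may be missed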
Text: The double-stranded 17-mer DNA fragment used in the ThO DNA binding assay was of the same sequence as the fluorogenic HTS substrate but carried no dye labels.
as §1
To detect screening hits that inhibit APE1 activity through non-specific DNA interactions, we employed a previously established miniaturized ThO dye displacement assay [21]. […] We note that the ThO assay reports primarily on DNA binders acting through intercalation, while potentially missing other types of DNA binders, such as those acting through the minor groove.

[6] = initial quantitative high-throughput screen, read-out: APE1 qHTS IC50
[7] = retest of cherrypicked sample, read-out: APE1 Retest IC50

Structure (SMILES) | IC50 [1] [µM] | IC50 [2, 6] [µM] | IC50 [2, 7] [µM] | Radiotracer Assay (%Activity) [3] [%] | IC50 [4] [µM] | IC50 [5] [µM]
CC(C)C(C(=O)O)N1C(=O)/C(=C/C=C/c2ccco2)SC1=S (stereo not shown) [MLS000551672] | 11.2 | 1.6 | 2.5 | 19 | > 57 | > 57
Cc1cccc(C)c1NC(=O)CSc1nnc(-c2ccco2)c(-c2ccco2)n1 [MLS000556463] | > 57 | 15.6 | 3.6 | 43 | > 57 | > 57
NC(=O)Cn1c(=O)n(Cc2ccco2)c(=O)c2c3c(sc21)CCCCC3 [MLS000559128] | 7.1 | 31.6 | 10 | 21 | > 57 | > 57
O=C(OCC1O[C@@H](OC(=O)c2cc(O)c(O)c(O)c2)[C@@H](OC(=O)c2cc(O)c(O)c(O)c2)[C@@H](OC(=O)c2cc(O)c(O)c(O)c2)[C@@H]1OC(=O)c1cc(O)c(O)c(O)c1)c1cc(O)c(O)c(O)c1 (stereo partly shown) [MLS000574902] | > 57 | 0.01 | 0.006 | 8 | > 57 | 4
O=C(N/N=C/c1cccn1-c1cccc(C(=O)O)c1)Nc1ccccc1 [MLS000588622] | > 57 | 5 | 3.5 | 32 | > 57 | > 57
COc1ccc2c(c1)c(=O)oc1cc(OCC(=O)NC3CCCCC3)ccc12 [MLS000594161] | > 57 | 11.2 | 5.6 | 38 | > 57 | > 57
N#C/C(=C/c1cccn1-c1cccc(C(=O)O)c1)c1ccc(Cl)cc1 [MLS000621431] | > 57 | 11.2 | 5 | 44 | > 57 | > 57
Cc1cccc(N2NC(=O)/C(=C/c3ccc(-c4ccc(Cl)c(C(=O)O)c4)o3)C2=O)c1 [MLS000621664] | > 57 | 17.8 | 12.6 | 32 | > 57 | > 57
O=C(O)c1ccc(-n2cccc2/C=C2/NC(=O)N(c3cccc(Cl)c3)C2=O)cc1 [MLS000621695] | 11.2 | 2.8 | 1.6 | 6 | > 57 | 15.8
Cc1cc(/C=C2\C(=O)NC(=O)N(Cc3ccccc3Cl)C2=O)c(C)n1-c1ccc(C(=O)O)cc1 [MLS000627094] | 15.8 | 11.2 | 12.6 | 2 | > 57 | > 57
O=C(CSc1nc(-c2ccc(F)cc2)nc2c1Cc1ccccc1O2)Nc1ccc(C(=O)O)cc1 [MLS000673045] | > 57 | 12.6 | 4.5 | 36 | 14.1 | 3.2
CC(=O)NC1=NC(=O)/C(=C/c2cc(C)n(-c3cccc(C(=O)O)c3)c2C)S1 [MLS000673948] | > 57 | 3.5 | 4.4 | 30 | > 57 | > 57
Cc1cc(C=O)c(C)n1-c1ccc(Cl)c(C(=O)O)c1 [MLS000676588] | > 57 | 5.6 | 8.9 | 31 | > 57 | > 57
O=C1NN(c2ccccc2)C(=O)/C1=C/c1ccc(-c2ccc(Cl)c(C(=O)O)c2)o1 [MLS000682903] | 15.8 | 12.6 | 15.6 | 37 | > 57 | > 57
O=C(CCc1n[nH]c(=O)[nH]c1=O)N/N=C/c1ccco1 [MLS000685551] | > 57 | 19.9 | 12.6 | 33 | > 57 | > 57
COc1cc(/C=N/Nc2ccc(C(=O)O)cc2)ccc1O [MLS000685676] | > 57 | 14.1 | 14.1 | 50 | > 57 | > 57
O=c1nc(N/N=C/c2ccco2)cn[nH]1 [MLS000685729] | > 57 | – | 5 | 28 | > 57 | > 57
Cc1ccc(NC(=O)CN2C(=O)N/C(=C\c3cccn3-c3cccc(C(=O)O)c3)C2=O)cc1 [MLS000686355] | 14.1 | 3.5 | 1.4 | 15 | > 57 | > 57
O=C(O)C[C@@H]1C(=O)O[C@@H]2C(COC(=O)c3cc(O)c(O)c(O)c3)O[C@@H](OC(=O)c3cc(O)c(O)c(O)c3)[C@@H](OC(=O)c3cc(O)c(O)c4c3[C@H]1[C@H](O)C(=O)O4)[C@H]2OC(=O)c1cc(O)c(O)c(O)c1 (stereo partly shown) [MLS000697665] | 14.1 | 0.01 | 0.01 | 29 | > 57 | 0.4

Structure (SMILES) | IC50 [1] [µM] | IC50 [2, 6] [µM] | IC50 [2, 7] [µM] | Radiotracer Assay (%Activity) [3] [%] | IC50 [4] [µM] | IC50 [5] [µM]
O=C(/C=C/c1ccc(O)c(O)c1)O[C@H](Cc1ccc(O)c(O)c1)C(=O)O [MLS000697677] | > 57 | 0.1 | 0.6 | 38 | > 57 | > 57
O=C(c1cc(C(=O)c2ccco2)cc(C(=O)c2ccco2)c1)c1ccco1 [MLS000699310] | > 57 | 31.6 | 5 | 6 | > 57 | > 57
Cc1cc(C)c2nc(-c3ccco3)cc(C(=O)O)c2c1 [MLS000703171] | > 57 | 7.1 | 12.6 | 23 | > 57 | > 57
Cc1ccccc1N=C1NC(=O)/C(=C/c2cccn2-c2cccc(C(=O)O)c2)S1 [MLS000704580] | > 57 | 17.8 | 11.2 | 7 | > 57 | > 57
Cn1cnnc1SCC(=O)Nc1nc(-c2ccccc2)cs1 [MLS000711532] | > 57 | 28.2 | 10 | 32 | > 57 | > 57
O=C(O)c1ccc(N2C(=O)c3cccc4c(C(=O)O)ccc(c34)C2=O)cc1 [MLS000713642] | 15.8 | 12.6 | 7.9 | 28 | > 57 | > 57
Nc1ccc2c(c1Cl)C(=O)c1ccc(N)c(Cl)c1C2=O [MLS000737360] | 7.9 | 8.9 | 6.3 | 17 | > 57 | 6.3
Nc1ccc(Nc2ccccc2)c(S(=O)(=O)O)c1 [MLS000737782] | > 57 | 14.1 | 15.8 | 9 | > 57 | > 57
O=C1CCCC(O)=C1N=Nc1ccc(C(=O)O)cc1 [MLS000759943] | > 57 | 8.9 | 10 | 47 | > 57 | > 57
CCOC(=O)c1cc(-c2ccc(N3CCOCC3)cc2)nn1-c1ccccc1C(=O)O [MLS000759946] | 15.8 | 2.5 | 14.1 | 27 | > 57 | > 57
O=C1CCCC(O)=C1N=Nc1cccc(C(=O)O)c1 [MLS000759952] | > 57 | 10 | 12.6 | 10 | > 57 | > 57
COc1ccc(N2CCN(C(=O)Cc3ccc(S(=O)(=O)N4CCOCC4)s3)CC2)cc1 [MLS000760918] | > 57 | 14.1 | – | 45 | > 57 | > 57
O=C(NN1C(=O)/C(=C/C=C/c2ccco2)SC1=S)c1ccncc1 [MLS000762704] | > 57 | 4.5 | 4.5 | 36 | > 57 | > 57
O=C(/C=C/c1ccco1)NCc1ccco1 [MLS000768482] | > 57 | 22.4 | 4.5 | 21 | > 57 | > 57
O=C(O)c1cccc(-c2ccc(/C=c3/sc4nc5ccccc5n4c3=O)o2)c1 [MLS000777053] | 7.9 | 10 | 5 | 23 | > 57 | 6.3
O=C(O)c1ccc(-n2cccc2/C=C2/NC(=O)N(c3ccccc3)C2=O)cc1 [MLS000778414] | 12.6 | 2.5 | 4 | 37 | > 57 | > 57
O=C(O)CCCN1C(=O)/C(=C/C=C/c2ccco2)SC1=S [MLS000778631] | > 57 | 35.5 | 5 | 41 | > 57 | > 57
O=C(CCCN1C(=O)/C(=C/c2ccco2)SC1=S)Nc1ccccc1C(=O)O [MLS000778775] | 5 | 19.9 | 12.6 | 3 | > 57 | > 57
